Measurements published in the kinase profiling compilation of Christmann-Franck et al. (2016).
Values joined by “and” are separate entries in the source; they are usually repeats but may differ in a detail not shown here. Identical values can stand only once.

Columns and labels:
Experiment in all cases: radiometric filter-binding kinase assay, Kinase HotSpot
Settings in all cases: compound 0.5 µM; ATP 10 µM
[1] = target: ADRBK2 (human) (UniProt P35626)
[2] = target: AKT3 (human) (UniProt Q9Y243)
[3] = target: CAMK1 (human) (UniProt Q14012)
[4] = target: CAMK2A (human) (UniProt Q9UQM7)
[5] = target: CDK6 CCND1 (human) (UniProt Q00534+P24385)
[6] = target: CLK2 (human) (UniProt P49760)
[7] = target: CSNK1E (human) (UniProt P49674)
[8] = target: DCLK2 (human) (UniProt Q8N568)
[9] = target: DSTYK (human) (UniProt Q6XUX3)
[10] = target: EPHA1 (human) (UniProt P21709)
[11] = target: GSG2 (human) (UniProt Q8TF76)
[12] = target: INSR (human) (UniProt P06213)
[13] = target: IRAK4 (human) (UniProt Q9NWZ3)
[14] = target: LTK (human) (UniProt P29376)
[15] = target: LYN (human) (UniProt P07948)
[16] = target: MAP3K3 (human) (UniProt Q99759)
[17] = target: MAP3K7 TAB1 (human) (UniProt O43318+Q15750)
[18] = target: MAP4K2 (human) (UniProt Q12851)
[19] = target: MAPK10 (human) (UniProt P53779)
[20] = target: MAPK9 (human) (UniProt P45984)
[21] = target: MAPKAPK2 (human) (UniProt P49137)
[22] = target: MELK (human) (UniProt Q14680)
[23] = target: MUSK (human) (UniProt O15146)
[24] = target: MYLK (human) (UniProt Q15746)
[25] = target: NEK3 (human) (UniProt P51956)
[26] = target: NEK4 (human) (UniProt P51957)
[27] = target: PAK1 (human) (UniProt Q13153)
[28] = target: PAK3 (human) (UniProt O75914)
[29] = target: PAK4 (human) (UniProt O96013)
[30] = target: PBK (human) (UniProt Q96KB5)
[31] = target: PRKD3 (human) (UniProt O94806)
[32] = target: PRKX (human) (UniProt P51817)
[33] = target: RET (human) (UniProt P07949)
[34] = system: SGK1 (human), O00141 [S422D]
[35] = target: SRC (human) (UniProt P12931)
[36] = target: STK24 (human) (UniProt Q9Y6E0)
[37] = target: STK33 (human) (UniProt Q9BYT3)
[38] = target: SYK (human) (UniProt P43405)
[39] = target: TAOK2 (human) (UniProt Q9UL54)
[40] = target: TGFBR1 (human) (UniProt P36897)
[41] = target: TGFBR2 (human) (UniProt P37173)
[42] = target: TNK2 (human) (UniProt Q07912)
TNK2 (human), sequence (Q07912 whole entry, looked up): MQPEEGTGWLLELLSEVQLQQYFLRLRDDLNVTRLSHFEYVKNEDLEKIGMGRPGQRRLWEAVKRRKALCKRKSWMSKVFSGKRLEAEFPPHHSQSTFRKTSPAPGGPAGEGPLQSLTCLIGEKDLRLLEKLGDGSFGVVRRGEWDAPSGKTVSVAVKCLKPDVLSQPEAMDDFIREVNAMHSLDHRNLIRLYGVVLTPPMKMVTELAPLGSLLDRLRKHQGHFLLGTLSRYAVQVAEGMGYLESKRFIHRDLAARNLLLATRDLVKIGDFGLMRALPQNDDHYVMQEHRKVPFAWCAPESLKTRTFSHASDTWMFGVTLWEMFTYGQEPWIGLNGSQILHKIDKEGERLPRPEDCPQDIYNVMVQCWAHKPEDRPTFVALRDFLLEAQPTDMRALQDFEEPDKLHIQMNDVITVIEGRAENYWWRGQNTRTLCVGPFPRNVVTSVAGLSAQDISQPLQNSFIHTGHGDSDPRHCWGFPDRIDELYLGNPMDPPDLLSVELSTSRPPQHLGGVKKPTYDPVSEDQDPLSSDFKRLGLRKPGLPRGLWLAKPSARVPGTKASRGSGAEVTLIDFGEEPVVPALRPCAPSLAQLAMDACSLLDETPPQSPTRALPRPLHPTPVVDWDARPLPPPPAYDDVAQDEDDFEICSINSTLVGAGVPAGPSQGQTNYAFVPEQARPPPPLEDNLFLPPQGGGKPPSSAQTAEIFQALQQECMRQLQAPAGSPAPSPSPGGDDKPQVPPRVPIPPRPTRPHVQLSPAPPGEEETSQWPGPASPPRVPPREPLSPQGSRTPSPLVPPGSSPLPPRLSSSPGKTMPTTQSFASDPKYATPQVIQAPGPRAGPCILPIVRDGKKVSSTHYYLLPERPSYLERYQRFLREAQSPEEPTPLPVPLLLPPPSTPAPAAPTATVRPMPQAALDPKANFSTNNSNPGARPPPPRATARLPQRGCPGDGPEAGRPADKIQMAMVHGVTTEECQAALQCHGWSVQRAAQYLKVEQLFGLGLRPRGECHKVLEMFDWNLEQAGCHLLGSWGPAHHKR

GSG2 (human), sequence (Q8TF76 whole entry, looked up): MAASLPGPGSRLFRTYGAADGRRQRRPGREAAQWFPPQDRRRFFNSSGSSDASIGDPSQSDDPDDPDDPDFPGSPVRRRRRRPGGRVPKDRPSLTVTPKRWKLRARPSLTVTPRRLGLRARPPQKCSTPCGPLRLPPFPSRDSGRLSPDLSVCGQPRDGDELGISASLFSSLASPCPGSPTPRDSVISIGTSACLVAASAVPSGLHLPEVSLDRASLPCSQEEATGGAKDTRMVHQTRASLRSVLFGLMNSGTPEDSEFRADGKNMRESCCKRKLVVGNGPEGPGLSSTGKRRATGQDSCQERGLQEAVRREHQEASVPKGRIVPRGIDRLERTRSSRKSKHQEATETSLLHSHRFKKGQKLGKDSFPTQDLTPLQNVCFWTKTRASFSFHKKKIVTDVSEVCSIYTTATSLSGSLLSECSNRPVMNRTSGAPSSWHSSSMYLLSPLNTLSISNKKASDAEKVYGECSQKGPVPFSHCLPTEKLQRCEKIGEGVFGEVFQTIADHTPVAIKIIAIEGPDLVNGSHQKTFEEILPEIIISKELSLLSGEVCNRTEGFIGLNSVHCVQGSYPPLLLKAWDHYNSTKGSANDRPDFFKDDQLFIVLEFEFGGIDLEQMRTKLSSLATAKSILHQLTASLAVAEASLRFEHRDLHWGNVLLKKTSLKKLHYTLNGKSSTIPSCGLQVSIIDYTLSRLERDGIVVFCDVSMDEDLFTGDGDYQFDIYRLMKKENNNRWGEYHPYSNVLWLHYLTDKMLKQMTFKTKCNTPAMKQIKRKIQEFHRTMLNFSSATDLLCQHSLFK
CAMK1 (human), sequence (Q14012 whole entry, looked up): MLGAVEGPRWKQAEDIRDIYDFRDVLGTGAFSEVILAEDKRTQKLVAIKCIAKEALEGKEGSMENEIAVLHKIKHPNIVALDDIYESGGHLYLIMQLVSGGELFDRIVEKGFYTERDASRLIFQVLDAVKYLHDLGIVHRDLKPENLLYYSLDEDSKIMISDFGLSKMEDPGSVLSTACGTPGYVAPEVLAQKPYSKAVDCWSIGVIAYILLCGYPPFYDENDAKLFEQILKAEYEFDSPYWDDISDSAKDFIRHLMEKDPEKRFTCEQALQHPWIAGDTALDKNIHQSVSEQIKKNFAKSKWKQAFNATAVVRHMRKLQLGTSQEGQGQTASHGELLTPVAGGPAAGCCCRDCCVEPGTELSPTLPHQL
TAOK2 (human), sequence (Q9UL54 whole entry, looked up): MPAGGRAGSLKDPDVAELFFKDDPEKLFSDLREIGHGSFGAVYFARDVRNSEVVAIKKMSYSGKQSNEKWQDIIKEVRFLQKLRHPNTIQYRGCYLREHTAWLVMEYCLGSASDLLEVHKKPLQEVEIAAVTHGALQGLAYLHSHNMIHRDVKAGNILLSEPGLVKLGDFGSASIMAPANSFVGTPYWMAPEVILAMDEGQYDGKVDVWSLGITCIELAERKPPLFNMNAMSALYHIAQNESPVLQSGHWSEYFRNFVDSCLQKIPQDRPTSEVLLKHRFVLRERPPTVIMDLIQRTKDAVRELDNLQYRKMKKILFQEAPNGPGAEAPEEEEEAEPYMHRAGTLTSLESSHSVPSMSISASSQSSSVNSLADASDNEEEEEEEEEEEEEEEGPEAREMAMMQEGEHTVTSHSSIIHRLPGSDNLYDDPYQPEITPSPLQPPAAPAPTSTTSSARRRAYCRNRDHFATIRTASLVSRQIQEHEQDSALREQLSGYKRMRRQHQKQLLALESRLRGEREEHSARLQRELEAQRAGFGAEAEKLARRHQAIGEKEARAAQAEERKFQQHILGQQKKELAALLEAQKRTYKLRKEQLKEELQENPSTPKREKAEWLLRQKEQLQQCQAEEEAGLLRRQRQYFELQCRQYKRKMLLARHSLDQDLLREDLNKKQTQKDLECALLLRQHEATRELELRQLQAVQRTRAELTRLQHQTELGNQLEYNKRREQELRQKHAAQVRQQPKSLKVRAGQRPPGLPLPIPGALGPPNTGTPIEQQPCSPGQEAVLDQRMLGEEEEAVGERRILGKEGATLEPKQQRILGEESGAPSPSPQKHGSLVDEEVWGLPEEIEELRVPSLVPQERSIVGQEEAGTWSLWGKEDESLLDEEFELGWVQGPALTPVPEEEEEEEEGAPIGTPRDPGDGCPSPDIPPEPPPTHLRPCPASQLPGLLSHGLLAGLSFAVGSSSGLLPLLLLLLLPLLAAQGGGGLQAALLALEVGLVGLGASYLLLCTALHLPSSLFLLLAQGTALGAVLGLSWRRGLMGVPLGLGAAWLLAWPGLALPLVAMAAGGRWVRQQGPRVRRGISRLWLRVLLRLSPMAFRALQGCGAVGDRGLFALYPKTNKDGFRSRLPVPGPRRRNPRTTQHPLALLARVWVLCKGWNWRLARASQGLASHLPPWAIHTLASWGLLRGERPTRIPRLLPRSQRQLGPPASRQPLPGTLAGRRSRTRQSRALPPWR
CLK2 (human), sequence (P49760 whole entry, looked up): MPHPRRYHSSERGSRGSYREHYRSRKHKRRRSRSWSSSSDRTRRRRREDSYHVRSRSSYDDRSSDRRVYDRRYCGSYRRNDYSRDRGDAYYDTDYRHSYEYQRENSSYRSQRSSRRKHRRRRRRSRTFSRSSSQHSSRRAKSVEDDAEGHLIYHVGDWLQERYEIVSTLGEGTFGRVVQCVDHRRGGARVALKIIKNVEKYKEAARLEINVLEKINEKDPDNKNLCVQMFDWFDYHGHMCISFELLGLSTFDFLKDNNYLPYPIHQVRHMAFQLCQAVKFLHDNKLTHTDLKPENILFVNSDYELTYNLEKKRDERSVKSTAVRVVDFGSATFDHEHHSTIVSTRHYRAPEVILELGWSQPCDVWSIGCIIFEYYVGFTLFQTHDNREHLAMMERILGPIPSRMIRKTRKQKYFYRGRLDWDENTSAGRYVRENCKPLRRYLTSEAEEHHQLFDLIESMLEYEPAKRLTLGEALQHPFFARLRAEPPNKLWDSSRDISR
STK24 (human), sequence (Q9Y6E0 whole entry, looked up): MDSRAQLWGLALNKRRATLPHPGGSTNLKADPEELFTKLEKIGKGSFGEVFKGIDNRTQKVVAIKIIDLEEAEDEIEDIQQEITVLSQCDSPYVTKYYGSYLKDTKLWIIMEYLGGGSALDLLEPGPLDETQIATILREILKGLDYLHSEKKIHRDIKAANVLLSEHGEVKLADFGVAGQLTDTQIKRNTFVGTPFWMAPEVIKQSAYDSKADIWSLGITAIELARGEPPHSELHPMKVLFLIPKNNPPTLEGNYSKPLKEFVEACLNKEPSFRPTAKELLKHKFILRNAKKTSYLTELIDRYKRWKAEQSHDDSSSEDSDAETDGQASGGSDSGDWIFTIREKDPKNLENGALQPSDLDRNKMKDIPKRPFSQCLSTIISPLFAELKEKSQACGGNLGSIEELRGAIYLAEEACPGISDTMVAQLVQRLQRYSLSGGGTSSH
LYN (human), sequence (P07948 whole entry, looked up): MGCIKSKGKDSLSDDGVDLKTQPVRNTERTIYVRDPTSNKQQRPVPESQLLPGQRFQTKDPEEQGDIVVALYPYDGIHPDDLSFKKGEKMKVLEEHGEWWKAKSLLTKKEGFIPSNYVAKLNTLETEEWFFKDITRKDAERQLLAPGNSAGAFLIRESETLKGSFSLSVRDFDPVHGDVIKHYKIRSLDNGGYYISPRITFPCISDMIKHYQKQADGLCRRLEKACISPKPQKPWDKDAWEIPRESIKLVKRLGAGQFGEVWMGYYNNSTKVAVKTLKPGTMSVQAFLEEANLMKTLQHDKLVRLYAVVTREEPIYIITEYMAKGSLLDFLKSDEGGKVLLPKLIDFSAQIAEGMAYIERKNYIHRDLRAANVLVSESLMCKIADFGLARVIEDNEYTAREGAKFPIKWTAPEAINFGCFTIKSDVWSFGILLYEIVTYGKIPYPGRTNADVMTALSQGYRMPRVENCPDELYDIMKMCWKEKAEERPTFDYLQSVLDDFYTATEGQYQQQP

## COc1cc2c(cc1OC)-c1[nH]nc(Nc3cccc(F)c3)c1C2
[1]
  residual activity: 98.4%
[2]
  residual activity: 96.1%
[3]
  residual activity: 98.4%
[4]
  residual activity: 95.6%
[5]
  residual activity: 92.9%
[6]
  residual activity: 84.3%
[7]
  residual activity: 94.3%
[8]
  residual activity: 88.2%
[9]
  residual activity: 93.3%
[10]
  residual activity: 102%
[11]
  residual activity: 84.8%
[12]
  residual activity: 101%
[13]
  residual activity: 70%
[14]
  residual activity: 93.3%
[15]
  residual activity: 60.2% and 77.5%
[16]
  residual activity: 103%
[17]
  residual activity: 94%
[18]
  residual activity: 103%
[19]
  residual activity: 102%
[20]
  residual activity: 75.9%
[21]
  residual activity: 97.2%
[22]
  residual activity: 72.1%
[23]
  residual activity: 82.7%
[24]
  residual activity: 102%
[25]
  residual activity: 97.1%
[26]
  residual activity: 101%
[27]
  residual activity: 96.9%
[28]
  residual activity: 93.1%
[29]
  residual activity: 89.9%
[30]
  residual activity: 86.8%
[31]
  residual activity: 93.1%
[32]
  residual activity: 103%
[33]
  residual activity: 83.6%
[34]
  residual activity: 99.8%
[35]
  residual activity: 63.4%
[36]
  residual activity: 99.9%
[37]
  residual activity: 99.5%
[38]
  residual activity: 103%
[39]
  residual activity: 97.1%
[40]
  residual activity: 101%
[41]
  residual activity: 100%
[42]
  residual activity: 15.1%

## Cc1cc(Nc2nc(-c3ccccc3)nc3ccccc23)n[nH]1
[1]
  residual activity: 106%
[2]
  residual activity: 95.5%
[3]
  residual activity: 93.1%
[4]
  residual activity: 108%
[5]
  residual activity: 85.5%
[6]
  residual activity: 91.7%
[7]
  residual activity: 97.4%
[8]
  residual activity: 87.4%
[9]
  residual activity: 86%
[10]
  residual activity: 69.9%
[11]
  residual activity: 90.5%
[12]
  residual activity: 31.6%
[13]
  residual activity: 93.2%
[14]
  residual activity: 63.6%
[15]
  residual activity: 79.9% and 88.7%
[16]
  residual activity: 82.9%
[17]
  residual activity: 78.3%
[18]
  residual activity: 45.3%
[19]
  residual activity: 88.7%
[20]
  residual activity: 92.4%
[21]
  residual activity: 100%
[22]
  residual activity: 69.1%
[23]
  residual activity: 51%
[24]
  residual activity: 60.2%
[25]
  residual activity: 101%
[26]
  residual activity: 95%
[27]
  residual activity: 79.5%
[28]
  residual activity: 90.2%
[29]
  residual activity: 84.2%
[30]
  residual activity: 95.4%
[31]
  residual activity: 93.9%
[32]
  residual activity: 101%
[33]
  residual activity: 8.76%
[34]
  residual activity: 95.5%
[35]
  residual activity: 24.4%
[36]
  residual activity: 66%
[37]
  residual activity: 44.7%
[38]
  residual activity: 61.9%
[39]
  residual activity: 90.3%
[40]
  residual activity: 97.1%
[41]
  residual activity: 116%
[42]
  residual activity: 10.8%

## N/C(=N\N=C/c1ccc(-c2cccc([N+](=O)[O-])c2)o1)N[N+](=O)[O-]
[1]
  residual activity: 102%
[2]
  residual activity: 94.3%
[3]
  residual activity: 106%
[4]
  residual activity: 100%
[5]
  residual activity: 100%
[6]
  residual activity: 88.3%
[7]
  residual activity: 91%
[8]
  residual activity: 101%
[9]
  residual activity: 95.4%
[10]
  residual activity: 88.9%
[11]
  residual activity: 89.1%
[12]
  residual activity: 92%
[13]
  residual activity: 87.3%
[14]
  residual activity: 102%
[15]
  residual activity: 96.3% and 99.4%
[16]
  residual activity: 93.8%
[17]
  residual activity: 91.5%
[18]
  residual activity: 115%
[19]
  residual activity: 87%
[20]
  residual activity: 111%
[21]
  residual activity: 96.3%
[22]
  residual activity: 102%
[23]
  residual activity: 94.4%
[24]
  residual activity: 92.5%
[25]
  residual activity: 101%
[26]
  residual activity: 103%
[27]
  residual activity: 91.4%
[28]
  residual activity: 95.1%
[29]
  residual activity: 95.3%
[30]
  residual activity: 111%
[31]
  residual activity: 93.9%
[32]
  residual activity: 97.8%
[33]
  residual activity: 99.9%
[34]
  residual activity: 92.4%
[35]
  residual activity: 99%
[36]
  residual activity: 87.7%
[37]
  residual activity: 102%
[38]
  residual activity: 91.8%
[39]
  residual activity: 95.3%
[40]
  residual activity: 96.6%
[41]
  residual activity: 123%
[42]
  residual activity: 99.9%

## CCOc1cc2ncnc(Nc3cccc(Br)c3)c2cc1OCC
[1]
  residual activity: 93.8%
[2]
  residual activity: 104%
[3]
  residual activity: 79.9%
[4]
  residual activity: 103%
[5]
  residual activity: 102%
[6]
  residual activity: 92.6%
[7]
  residual activity: 93.8%
[8]
  residual activity: 99.5%
[9]
  residual activity: 101%
[10]
  residual activity: 84.7%
[11]
  residual activity: 90.6%
[12]
  residual activity: 98.7%
[13]
  residual activity: 102%
[14]
  residual activity: 69.7%
[15]
  residual activity: 32.1% and 49.5%
[16]
  residual activity: 92.9%
[17]
  residual activity: 102%
[18]
  residual activity: 91.5%
[19]
  residual activity: 101%
[20]
  residual activity: 98.5%
[21]
  residual activity: 101%
[22]
  residual activity: 88.1%
[23]
  residual activity: 92.6%
[24]
  residual activity: 89.4%
[25]
  residual activity: 100%
[26]
  residual activity: 84.8%
[27]
  residual activity: 95.2%
[28]
  residual activity: 97.6%
[29]
  residual activity: 115%
[30]
  residual activity: 102%
[31]
  residual activity: 95.4%
[32]
  residual activity: 99.8%
[33]
  residual activity: 39.3%
[34]
  residual activity: 120%
[35]
  residual activity: 74.8%
[36]
  residual activity: 97.6%
[37]
  residual activity: 93.9%
[38]
  residual activity: 95.6%
[39]
  residual activity: 101%
[40]
  residual activity: 96.9%
[41]
  residual activity: 83.4%
[42]
  residual activity: 58.8%
